*1 amine or outer side, *2 acyl side, *3 side chain or, on linkers, in order; H or OH if unused. Where a SMILES comes first, the peptide text is derived from it. [ ]: non-standard residue; d: D form. The star is where a group is joined. X1 = O=C([C@@H](O)[C@H](Cc1ccccc1)N[*:1])[*:2]; PhAc = O=C(Cc1ccccc1)* Where only a bound is given, the exact number is not on record here.

For one assay, the target named is recombinant HIV protease (Human immunodeficiency virus type 1 group M subtype B, UniProt P12497). Conditions: inhibitor 5 μM (final concentration); 2.0 μg enzyme. As for the experimental part:
(§1) The HIV protease was chemically synthesized by replacement of two cysteine residues in the natural sequence [Science, 230, 949 (1985)] with alanine residues. The reaction mixture contained 100 mM MES buffer (pH 5.5), 40 mM of substrate (Ac-[…]NH, trifluoroacetate), inhibitors at varying concentrations dissolved in DMSO and 9.2 μg of the HIV protease in a total volume of 15 μl. Incubation was carried out at 37° C. for 60 min. The reaction was started by the addition of the enzyme and terminated by 15 μl of acetonitrile. The amount of a fragment peptide produced was measured by reversed-phase HPLC analysis using an internal standerd. The HPLC condition was as followes.
In the case of “Benzyloxycarbonyl-Asn-(2S,3S)-AHPBA-Pro-Ile-NH--CH2 --C6 H11 [Example 32]”, the residual enzymic activity came out at 11.0%.

For a further assay, the target named is T1, chemically synthesized HIV protease (Human immunodeficiency virus type 1 group M subtype B, UniProt P12497, C555A/C583A).
T1 construct: The HIV protease was chemically synthesized; made in house; host or cells: chemical (peptide) synthesis, no expression host
Format: biochemical. Conditions: expected; compound only said to be preparable. As for the experimental part:
as §1
Solvent A: 0.1% trifluoroacetic acid aqueous solution
Gradient: B was increased in 1.0%/min from 100% of A,
In the case of “5Isoquinoline-O--CH2 CO-Asn-(2S,3S)-AHPBA-Thz-NH-tBu [Example 192]”, the “inhibitory activity against the HIV protease” value is “high inhibitory activity”.

The assay is the same for the next values; noted with them: inhibitor 50 nM.
Consider “1-Naphthoxyacetyl-Mtv-(2S,3S)-AHPBA-Thz-NH-tBu [Example 154]”, for which the “Residual Activity (%)” value was determined as 35.4%.

Take “Benzyloxycarbonyl-Asn-(2S3S)-AHPBA-Pro-NHsBu [Example 176]”: the “Residual Activity (%)” value is recorded as 82.6%.

Consider “2-Naphthoxyacetyl-Msa-(2S,3S)-AHPBA-Pro-NH-tBu [Example 131]”, for which the “Residual Activity (%)” value came out at 28.8%.

Regarding “PhCH2 -O--CO-Asn-(2S,3S)-AHPBA-(L)-Tic-NH-tBu [Example 102]”, the “Residual Activity (%)” value is recorded as 89.2%.

As to “2-Quinolinecarbonyl-Asn-(2S,3S)-AHPBA-Dtc-NH-tBu [Example 118]”, the “Residual Activity (%)” value is 1.8%.

Take “1-Naphthoxyacetyl-Msa-(2S,3S)-AHPBA-Dmp-NH-tBu [Example 183]”: the “Residual Activity (%)” value is reported as 4.3%.

“1-Naphthoxyacetyl-Mta-(2S,3S)-AHPBA-Thz-NH-tBu [Example 162]”: the “Residual Activity (%)” value turned out to be 2.9%.

As to “Benzyloxycarbonyl-Asn-(2S,3S)-AHPBA-Cpp-NH-tBu [Example 185]”, the “Residual Activity (%)” value worked out at 96.0%.

As for “Benzyloxycarbonyl-Asn-(2S,3S)-AHPBA-Dtc-NH-tBu [Example 104]”, the “Residual Activity (%)” value is reported as 3.8%.

As for “1-Isoquinolinecarbonyl-Asn-(2S,3S)-AHPBA-Pro-NH-tBu [Example 140]”, the “Residual Activity (%)” value is given as 72.8%.

“1-Naphtboxyacetyl-Msv-(2S,3S)-AHPBA-Thz-NH-tBu [Example 155]”: the “Residual Activity (%)” value amounted to 7.3%.

Take “1-Naphthoxyacetyl-Msa-(2S,3S)-AHPBA-Thz-Pip-O--CH3 [Example 159]”: the “Residual Activity (%)” value stood at 90.8%.

For “Bis(4-chlorophenyl)methyloxyacetyl-Asn-(2S,3S)-AHPBA-Pro-NH-tBu [Example 94]”, the “Residual Activity (%)” value is listed as 37.0%.

Take “Benzyloxycarbonyt-Asn-(2S,3S)-AHPBA-Ccp-NH-tBu [Example 187]”: the “Residual Activity (%)” value is given as 99.0%.

On to “1-Napthoxyacetyl-Sma-(2S,3S)-AHPBA-Pro-NH-tBu [Example 98]”, for which the “Residual Activity (%)” value was 70.5%.

Consider “PhCH2 -O--CO-Asn-(2S,3S)-AHPBA-(D)-Tic-NH-tBu [Example 103]”, for which the “Residual Activity (%)” value was determined as 91.4%.

Take “Benzyloxycarbonyl-Asn-(2S,3S)-AHPBA-Pro-NH--C(CH3)2 --CH2 OH [Example 99]”: the “Residual Activity (%)” value came to 62.2%.

In the case of “1-NaPhthoxyacetyl-Prg-(2S,3S)-AHPBA-Thz-NH-tBu [Example 180]”, the “Residual Activity (%)” value stood at 26.0%.

Regarding “1-Naphthoxyacetyl-Ile-(2S,3S)-AHPBA-Thz-NH-tBu [Example 161]”, the “Residual Activity (%)” value is 7.0%.

The same assay, now with this note: inhibitor 5 μM (final concentration).
For “1-Naphthoxyacetyl-Msa-(2S,3S)-AHPBA-Thz-NH-chex-ol [Example 158]”, the “Residual Activity (%)” value is listed as under 10%.

On to “Benzyloxycarbonyl-Asn-(2S,3S)-AHPBA-Pro-NH-tAmyl [Example 87]”, for which the “Residual Activity (%)” value stood at 5.8%.

In the case of `CC(C)(C)NC(=O)[C@@H]1CCCN1C(=O)[C@@H](O)[C@H](Cc1ccccc1)NC(=O)[C@H](CS(C)(=O)=O)NC(=O)OCc1cccc2ccccc12` [Example 90, 1-Naphthylmethyloxycarbonyl-Msa-(2S,3S)-AHPBA-Pro-NH-tBu], the “Residual Activity (%)” value came to 1.5%.

In the case of “Benzyloxycarbonyl-Val-(2R,3S)-AHPBA-Phe-NH--CH2 --CH(CH3)2 [Example 54]”, the “Residual Activity (%)” value is given as 84.9%.

`CC(C)NC(=O)[C@@H]1CCCN1C(=O)[C@@H](O)[C@H](Cc1ccccc1)NC(=O)[C@H](CC(N)=O)NC(=O)OCc1ccccc1` [Example 85, Benzyloxycarbonyl-Asn-(2S,3S)-AHPBA-Pro-NH--CH(CH3)2]: the “Residual Activity (%)” value turned out to be 10.0%.

Turning to “Benzyloxycarbonyl-Asn-(2S,3S)-AHPBA-Pro-NH--CH2 --C(CH3)3 [Example 83]”, the “Residual Activity (%)” value is 12.4%.

Consider “Benzyloxycarbonyl-Asn-(2S,3S)-AHPBA-Pro-Ile-NH--CH2 --C6 H11 [Example 32]”, for which the “Residual Activity (%)” value was found to be 4.0%.

With “Boc-Sma-(2S,3S)-AHPBA-Pro-NH-tBu [Example 97]”, the “Residual Activity (%)” value is listed as 92.9%.

As for “3-Phenylpropionyl-Smc(O)-(2S,3S)-AHPBA-Pro-Ile-Val-NH2 [Example 61]”, the “Residual Activity (%)” value came to 90.9%.

For the molecule “Benzyloxycarbonyl-Asn-(2S,3S)-AHPBA-Pro-NH-cycloropyl [Example 88]”, the “Residual Activity (%)” value is given as under 10%.

Regarding “3-Phenylpropionyl-Msa-(2S,3S)-AHPBA-Pro-Ile-Val-NH2 [Example 62]”, the “Residual Activity (%)” value was found to be 3.2%.

Regarding “Thiophenecarbonyl-Asn-(2S,3S)-AHPBA-Pro-Ile-Val-NH2 [Example 67]”, the “Residual Activity (%)” value worked out at 4.9%.

Turning to “Benzyloxycarbonyl-Asn-(2S,3S)-AHPBA-Thz-NH-tBu [Example 82]”, the “Residual Activity (%)” value was 1.3%.

As for “Furancarbonyl-Asn-(2S,3S)-AHPBA-Pro-Ile-Val-NH2 [Example 65]”, the “Residual Activity (%)” value was 9.3%.

Regarding “Benzyloxycarbonyl-Val-(2R,3S)-AHPBA-Phe-Val-NH--CH2 --CH(CH3)2 [Example 53]”, the “Residual Activity (%)” value was 83.4%.

Turning to “Benzyloxycarbonyl-Asn-(2S,3S)-AHPBA-Pro-Aib-NH2 [Example 93]”, the “Residual Activity (%)” value is under 10%.

Turning to `CC[C@H](C)[C@H](NC(=O)[C@@H]1CCCN1C(=O)[C@@H](O)[C@H](Cc1ccccc1)NC(=O)[C@H](CO)NC(=O)Cc1ccccc1)C(=O)N[C@H](C(N)=O)C(C)C` [Example 20, Phenylacetyl-Ser-(2S,3S)-AHPBA-Pro-Ile-Val-NH2] (PhAc-S[X1]PIV-NH2), the “Residual Activity (%)” value is given as 42.8%.

In the case of `CC(C)(C)NC(=O)[C@@H]1CCCN1C(=O)[C@@H](O)[C@H](Cc1ccccc1)NC(=O)[C@H](CC(N)=O)NC(=O)OCc1ccccc1` [Example 55, Benzyloxycarbonyl-Asn-(2S,3S)-AHPBA-Pro-NH-tBu], the “Residual Activity (%)” value was 3.5%.

For the molecule `NC(=O)C[C@H](NC(=O)OCc1ccccc1)C(=O)N[C@@H](Cc1ccccc1)[C@H](O)C(=O)N1CCC[C@H]1C(=O)NC1CCCCC1` [Example 84, Benzyloxycarbonyl-Asn-(2S,3S)-AHPBA-Pro-NH--C6 H11], the “Residual Activity (%)” value is 9.6%.

For the molecule `CC(C)(C)NC(=O)[C@@H]1CCCN1C(=O)[C@H](O)[C@H](Cc1ccccc1)NC(=O)[C@H](CC(N)=O)NC(=O)OCc1ccccc1` [Example 56, Benzyloxycarbonyl-Asn-(2R,3S)-AHPBA-Pro-NH-tBu], the “Residual Activity (%)” value is on record as 95.1%.

Consider “Benzyloxycarbonyl-Asn-(2S,3S)-AHPBA-(D)-Pip-NH-tBu [Example 79]”, for which the “Residual Activity (%)” value was 84.0%.

For “PhCH2 -O--CO-Asn-(2S,3S)-AHPBA-Pro-NH--CH2 --C6 H11 [Example 49]”, the “Residual Activity (%)” value is 51.9%.

Take “Benzyloxycarbonyl-Asn-(2S,3S)-AHPBA-Pro-NH--CH(C2 H5)2 [Example 89]”: the “Residual Activity (%)” value is reported as under 10%.

Staying with this assay, now noted: inhibitor 1 mM.
`CC[C@H](C)[C@H](NC(=O)[C@@H]1CCCN1C(=O)[C@@H](O)[C@H](Cc1ccccc1)NC(=O)[C@H](CO)NC(=O)Cc1ccccc1)C(=O)N[C@H](C(N)=O)C(C)C` [Example 20, Phenylacetyl-Ser-(2S,3S)-AHPBA-Pro-Ile-Val-NH2] (PhAc-S[X1]PIV-NH2): the “Residual Activity (%)” value was 2.8%.

The values above are taken from patent US6313094A, “β-amino-α-hydroxycarboxylic acid derivatives and HIV protease inhibitors” (priority 1990, dated 2001).
